Assay results reported in patent US20110119780A1, “SCREENING FOR NON-GENOTOXIC CARCINOGENS” (priority 2008, published 2011).
Where “and” joins values, the source holds several entries; their conditions need not be identical. Identical values can stand only once. Like-named read-outs stand apart in the source and are kept apart here.

Columns and labels:
Cyp4a protein = settings: WT mice; liver microsomes; 50 mg/kg orally x4 daily
Protocol: Henderson, University of Dundee, UK). The standard used was APFO-induced WT rat liver microsomes (1 μg protein loaded).
To investigate the downstream effects of PPARα activation, the expression of Cyp4a proteins was evaluated by immunoblot analysis in liver microsomes from WT and hPPARα mice.
Individual liver microsomal samples were analysed by immunoblotting for Cyp4a. Protein concentration was measured using the CXR microlowry method. Quantification of Cyp4a protein in mouse liver microsomes was carried out. A murine his-tagged Cyp4a recombinant standard was loaded onto the NU-PAGE gel.

[1] = tested on: cyanide-insensitive palmitoyl-CoA oxidation; test: Cyanide-insensitive palmitoyl CoA oxidation in mouse liver (crude mitochondria); type: in vivo; settings: for PCO oxidation, NAD + red.: crude mitochondrial fraction of liver, 50 mg/kg orally x4 daily, individual mice, 50 mg/kg
Protocol: Measurements of cyanide-insensitive pCoA oxidation in crude mitochondrial fractions were performed as described.

[2] = type: in vivo, mice; settings: for Diluted Chol / Diluted HDL / Diluted LDL / Diluted Trig: dilution factor 2; for Diluted Chol / Diluted HDL / Diluted LDL / Diluted Trig / Normalised Chol / Normalised HDL / Normalised LDL / Normalised Trig: individual mice
Protocol: The plasma was processed by taking blood from the terminated mice by cardiac puncture into lithium/heparin-coated tubes. Following removal into suitable tubes for plasma preparation, terminal blood samples taken by cardiac puncture were mixed on a roller for 10 min then cooled on ice. Red blood cells were removed by centrifugation (2,000-3,000 rpm for 10 min at 8-10° C.). Immediately after centrifugation, the supernatant (plasma) was collected in eppendorfs and kept on wet ice. Plasma was transferred into cryovials for clinical chemistry and immediately flash frozen in liquid nitrogen, then stored at approximately −70° C. […] In order to investigate potential hepatotoxicity caused by Wy-14,643 treatment, markers of liver damage, alanine aminotransferase (ALT), aspartate aminotransferase (AST) and alkaline phosphatase (ALP) were measured in WT and hPPARα mice (Tables 6-8). Liver related plasma biomarkers, albumin (ALB), conjugated and total bilirubin (BIL-D and BIL-T respectively), cholesterol, high density lipoprotein (HDL-C), low density lipoprotein (LDL-C) and triglycerides were also investigated in all available plasma samples in order to characterise basal hepatic function in hPPARα mice relative to WT mice (Tables 9-15).

Cyp4a activity = settings: mouse, in vivo
Protocol: Lauric acid hydroxylation activity measurements in liver microsomes were performed.
Liver microsomes from each available animal were evaluated for Cyp4a activity by measuring lauric acid hydroxylation (FIG. 19, Tables 17-18).

[3] = design: species or system mice; settings: mouse, in vivo, po, 50 mg/kg
Protocol: Animals were treated either with 4 daily doses of Wy-14,643/corn oil (50 mg/kg, orally) or with corn oil alone, as shown in Table 2. Approximately 24 hr after the last dose, all mice were sacrificed using an increasing concentration of CO2. Liver and plasma were collected for analysis. Following treatment with Wy-14,643 or the vehicle (corn oil), the mice were sacrificed and their livers removed and weighed. […] The concentration of inducing agent was of supplied chemical, without any correction for purity. The volume administered was 10 ml/kg bodyweight. […] On the day of termination the mice were weighed, the body weights recorded, and then transferred to a suitable room for post mortem. Approximately 24 hrs after treatment, the mice will be killed by exposure to a rising concentration of CO2.

[4] = WT mice, plasma, 50 mg/kg orally x4 daily, 50 mg/kg
[5] = WT mice, plasma, 50 mg/kg orally x4 daily, n = 3
[6] = WT mice, plasma, % mean own control
[7] = hPPARα mice, plasma, 50 mg/kg orally x4 daily, 50 mg/kg

SMILES: Cc1cccc(Nc2cc(Cl)nc(SCC(=O)O)n2)c1C [Wy-14,643]
- Cyp4a protein expression (immunoblot, 50 kD band) (Cyp4a protein): marked induction
- PCO oxidation, % MEAN ([1]; WT mice, % mean own control): 265%
- PCO oxidation, NAD + red. ([1]; WT mice): 79 nmol/min/mg and 73 nmol/min/mg and 82 nmol/min/mg
- PCO oxidation, NAD + red., MEAN ([1]; WT mice, n = 3): 78 nmol/min/mg
- cyanide-insensitive pCoA oxidation, induction relative to vehicle controls ([1]; both mouse lines (WT, hPPARα), crude mitochondrial fractions): approximately 3 fold
- PCO oxidation, NAD + red. ([1]; hPPARα mice): 41 nmol/min/mg and 53 nmol/min/mg
- triglyceride concentrations, decrease compared to corresponding control mice ([2]; WT mice, p<0.05): ~50%
- Diluted Chol [2, 4]: 1.25 mmol/L and 1.02 mmol/L and 1.40 mmol/L
- Diluted HDL [2, 4]: 1.28 mmol/L and 1.02 mmol/L and 1.36 mmol/L
- Diluted LDL [2, 4]: 0.12 mmol/L and 0.08 mmol/L and 0.14 mmol/L
- Diluted Trig [2, 4]: 0.27 mmol/L and 0.21 mmol/L and 0.31 mmol/L
- Normalised Chol [2, 4]: 2.50 mmol/L and 2.04 mmol/L and 2.80 mmol/L
- Normalised HDL [2, 4]: 2.56 mmol/L and 2.04 mmol/L and 2.72 mmol/L
- Normalised LDL [2, 4]: 0.24 mmol/L and 0.16 mmol/L and 0.28 mmol/L
- Normalised Trig [2, 4]: 0.54 mmol/L and 0.42 mmol/L and 0.62 mmol/L
- Cholesterol, Mean [2, 5]: 2.45 mmol/L
- HDL, Mean [2, 5]: 2.44 mmol/L
- LDL, Mean [2, 5]: 0.23 mmol/L
- Triglycerides, Mean [2, 5]: 0.53 mmol/L
- Cholesterol, % Mean [2, 6]: 97%
- HDL, % Mean [2, 6]: 103%
- LDL, % Mean [2, 6]: 89%
- Triglycerides, % Mean [2, 6]: 56%
- Diluted Chol [2, 7]: 1.18 mmol/L and 1.47 mmol/L
- Diluted HDL [2, 7]: 1.14 mmol/L and 1.46 mmol/L
- Diluted LDL [2, 7]: 0.07 mmol/L and 0.11 mmol/L
- Diluted Trig [2, 7]: 0.64 mmol/L and 0.60 mmol/L
- Normalised Chol [2, 7]: 2.36 mmol/L and 2.94 mmol/L
- Normalised HDL [2, 7]: 2.28 mmol/L and 2.92 mmol/L
- Normalised LDL [2, 7]: 0.14 mmol/L and 0.22 mmol/L
- Normalised Trig [2, 7]: 1.28 mmol/L and 1.20 mmol/L
- ALP, % Mean ([2]; mouse, in vivo): 129%
- ALT, % Mean ([2]; mouse, in vivo): 117%
- AST, % Mean ([2]; mouse, in vivo): 121%
- Albumin, % Mean ([2]; mouse, in vivo): 101%
- BIL-D, % Mean ([2]; mouse, in vivo): 22%
- BIL-T, % Mean ([2]; mouse, in vivo): 69%
- ALP, Mean ([2]; mouse, in vivo, po, 50 mg/kg): 129 U/L
- ALT, AST and ALP concentration (plasma markers of hepatotoxicity) ([2]; mouse, in vivo, po, 50 mg/kg): unaltered
- ALT, Mean ([2]; mouse, in vivo, po, 50 mg/kg): 34 U/L
- AST, Mean ([2]; mouse, in vivo, po, 50 mg/kg): 119 U/L
- Albumin, Mean ([2]; mouse, in vivo, po, 50 mg/kg): 38 g/L
- BIL-D, Mean ([2]; mouse, in vivo, po, 50 mg/kg): 0.08 µmol/L
- BIL-T, Mean ([2]; mouse, in vivo, po, 50 mg/kg): 17 µmol/L
- Plasma albumin levels ([2]; mouse, in vivo, po, 50 mg/kg): unaltered
- triglyceride concentrations, decrease compared to corresponding control mice ([2]; the two hPPARα mice): 25% and 29%
- Formation of 11-OH lauric acid, % MEAN (Cyp4a activity): 308%
- Formation of 11-OH lauric acid, MEAN (Cyp4a activity): 3.0 nmol/min/mg
- Formation of 12-OH lauric acid, % MEAN (Cyp4a activity): 1669%
- Formation of 12-OH lauric acid, MEAN (Cyp4a activity): 9.2 nmol/min/mg
- Body weights, % Mean [3]: 98%
- Body weights, Mean [3]: 26 g
- Liver body weight ratios, % Mean [3]: 139%
- Liver body weight ratios, Mean [3]: 6.46%
- Liver weights, % Mean [3]: 135%
- Liver weights, Mean [3]: 1.69 g
